Assay results taken from patent publication US9227977B2, “Phosphoinositide 3-kinase inhibitors” (RESPIVERT LTD., priority 2013, dated 2016).

Legend:
[1] = test system: LPS-induced airway neutrophilia in mice; experiment: LPS-induced airway neutrophil accumulation in mice; assay type: in vivo, mouse; settings: i-t; for Neutrophil numbers in BALF: mean ± SEM
Experimental: Non-fasted BALB/c mice (6-8 weeks old) were dosed with vehicle or with test compound by intra-tracheal administration (dose volume 20 μL) at time points T=−2 hr, −8 hr, or −12 hr with respect to the start of LPS treatment. The LPS was prepared in a solution of 0.5 mg/mL and aerosolised using a De Vibliss ultrasonic nebuliser 2000 (7 mL during 30 min exposure). At eight hr after LPS challenge, the trachea was cannulated and bronchoalveolar lavage fluid (BALF) extracted by infusing and then withdrawing PBS (1 mL) into the lungs via the tracheal catheter. This procedure was repeated to give a yield of approximately 2 mL lavage fluid. Total cell numbers in the BALF samples were measured using a haemocytometer. Cytospin smears of the BALF samples were prepared by centrifugation at 1200 rpm for 2 min at RT and stained using a DiffQuik stain system (Dade Behring) for differential cell counts. Cells were counted using oil immersion microscopy. Data are expressed as neutrophil number of cells per mL of BALF (mean±S.E.M).

[2] = test system: LPS-induced airway neutrophilia in rats; experiment: LPS-induced airway neutrophil accumulation in rats; assay type: in vivo, rat; settings: i-t; for Neutrophil numbers in BALF: mean ± SEM
Experimental: Non-fasted rats were dosed with either vehicle or the test compound by intra-tracheal administration (dose volume 100 μL) at time points T=−2 h, −8 h, or −12 h with respect to the start of LPS treatment. The LPS solution (0.3 mg/mL) was aerosolised using a De Vibliss ultrasonic nebuliser 2000 (7 mL during 30 min). At eight hr after LPS challenge, the trachea was cannulated and bronchoalveolar lavage fluid (BALF) extracted by infusing and then withdrawing PBS (1 mL) into the lungs via the tracheal catheter. This procedure was repeated to provide approximately 2 mL of lavage fluid.
Total cell numbers in the BALF samples were measured using a Countess automated cell counter (Invitrogen). Cytospin smears of the BALF samples were prepared by centrifugation at 1200 rpm for 2 min at RT and stained using a DiffQuik stain system (Dade Behring) for differential cell counts. Cells were counted using oil immersion microscopy. Data are expressed as neutrophil number of cells per mL of BALF (mean±S.E.M).

[3] = test system: poly-I:C-induced cell accumulation in mice airways; experiment: Poly-I:C-induced cell accumulation in mice; assay type: in vivo, mouse; settings: for % inhibition, Macrophages in BALF / % inhibition, Neutrophils in BALF / Cell numbers in BALF, Macrophages / Cell numbers in BALF, Neutrophils: mice, poly I:C, intra-nasal; for Cell numbers in BALF, Macrophages / Cell numbers in BALF, Neutrophils: mean ± SEM
Experimental: Specific pathogen-free A/J mice (males, 5 weeks old) were dosed with poly (I:C)-LMW (1 mg/mL, 40 μL) (InvivoGen, San Diego, Calif., USA) intranasally twice daily for 3 days under anaesthasia (3% isoflurane). Test substances were dosed intra-nasally (50 μL in 10% DMSO/isotonic saline vehicle) 2 hr before each poly-I:C treatment. At 24 hr after the last poly-I:C challenge, animals were anesthetized, the trachea was cannulated and bronchial alveolar lavage (BAL) was obtained by instilling into and then withdrawing from the lungs, isotonic saline (100 mL/kg). Total cell numbers in the BALF samples were measured using a haemocytometer under a phase-contrast microscope.
The proportions of alveolar macrophages and neutrophils were determined by FACS analysis using anti-mouse MOMA2-FITC (macrophage) or anti-mouse 7/4-FITC (neutrophil). Cells were suspended in PBS and incubated with anti-MOMA2-FITC (2 μg/mL, Catalogue no SM065F, Acris Antibodies GmbH, Herford, Germany) or anti-7/4-FITC (2 μg/mL, Catalogue no CL050F, Acris Antibodies GmbH, Herford, Germany) for 30 min at 30° C., and then counterstained with propidium iodide (2 μg/mL) to allow exclusion of necrotic cells. The cells were washed with PBS, and transferred to FACS tubes. Samples was set in a flow cytometer (ALTRA II; Beckman Coulter Japan, Tokyo, Japan), and a single-parameter FL2 [PMT2] (FITC) histogram with log x-axis was plotted to illustrate relative intensity of FITC, Data files were stored for subsequent analysis using Kaluza analysis software (ver. 1.2) to calculate the proportion of each cell type.

SMILES: COCCOCCOCC#Cc1cccc2nc(Cn3nc(-c4cc(O)cc(F)c4)c4c(N)ncnc43)n(Cc3ccccc3C(F)(F)F)c(=O)c12 [Compound (I), 2-((4-Amino-3-(3-fluoro-5-hydroxyphenyl)-1H-pyrazolo[3,4-d]pyrimidin-1-yl)methyl)-5-(3-(2-(2-methoxyethoxy)ethoxy)prop-1-yn-1-yl)-3-(2-(trifluoromethyl)benzyl)quinazolin-4(3H)-one]
- % inhibition of neutrophil numbers in BALF ([1]; 0.05 mg/mL, pre-dose 2 hr): 19%
- Neutrophil numbers in BALF ([1]; 0.05 mg/mL, pre-dose 2 hr): 13.8 ± 2.5 x10^5/mL
- % inhibition of neutrophil numbers in BALF ([1]; 0.2 mg/mL, pre-dose 2 hr): 53%
- Neutrophil numbers in BALF ([1]; 0.2 mg/mL, pre-dose 2 hr): 8.0 ± 1.4 x10^5/mL
- % inhibition of neutrophil numbers in BALF ([1]; 0.2 mg/mL, pre-dose 8 hr): 45%
- Neutrophil numbers in BALF ([1]; 0.2 mg/mL, pre-dose 8 hr): 9.4 ± 2.0 x10^5/mL
- % inhibition of neutrophil numbers in BALF ([1]; 0.2 mg/mL, pre-dose 12 h): 23%
- Neutrophil numbers in BALF ([1]; 0.2 mg/mL, pre-dose 12 h): 13.1 ± 2.5 x10^5/mL
- % inhibition of neutrophil numbers in BALF ([1]; 1.0 mg/mL, pre-dose 2 hr): 68%
- Neutrophil numbers in BALF ([1]; 1.0 mg/mL, pre-dose 2 hr): 5.5 ± 0.9 x10^5/mL
- % inhibition of neutrophil numbers in BALF ([2]; 0.05 mg/mL, pre-dose 2 hr): 9%
- Neutrophil numbers in BALF ([2]; 0.05 mg/mL, pre-dose 2 hr): 13.2 ± 2.3 x10^5/mL
- % inhibition of neutrophil numbers in BALF ([2]; 0.2 mg/mL, pre-dose 2 hr): 58%
- Neutrophil numbers in BALF ([2]; 0.2 mg/mL, pre-dose 2 hr): 6.3 ± 1.6 x10^5/mL
- % inhibition of neutrophil numbers in BALF ([2]; 0.2 mg/mL, pre-dose 8 hr): 33%
- Neutrophil numbers in BALF ([2]; 0.2 mg/mL, pre-dose 8 hr): 10.1 ± 1.8 x10^5/mL
- % inhibition of neutrophil numbers in BALF ([2]; 0.2 mg/mL, pre-dose 12 h): 10%
- Neutrophil numbers in BALF ([2]; 0.2 mg/mL, pre-dose 12 h): 13.6 ± 2.7 x10^5/mL
- % inhibition of neutrophil numbers in BALF ([2]; 1.0 mg/mL, pre-dose 2 hr): 73%
- Neutrophil numbers in BALF ([2]; 1.0 mg/mL, pre-dose 2 hr): 4.1 ± 0.7 x10^5/mL
- potency versus compound A on poly-I:C-induced cell accumulation (in words) ([3]; direct comparison): significantly greater potency than compound A
- % inhibition, Macrophages in BALF ([3]; 0.002 mg/mL): 49%
- % inhibition, Neutrophils in BALF ([3]; 0.002 mg/mL): 43%
- Cell numbers in BALF, Macrophages ([3]; 0.002 mg/mL): 11.5 ± 0.2 x10^4/mL
- Cell numbers in BALF, Neutrophils ([3]; 0.002 mg/mL): 7.3 ± 0.3 x10^4/mL
- % inhibition, Macrophages in BALF ([3]; 0.02 mg/mL): 69%
- % inhibition, Neutrophils in BALF ([3]; 0.02 mg/mL): 65%
- Cell numbers in BALF, Macrophages ([3]; 0.02 mg/mL): 8.3 ± 0.3 x10^4/mL
- Cell numbers in BALF, Neutrophils ([3]; 0.02 mg/mL): 5.0 ± 0.2 x10^4/mL
- % inhibition, Macrophages in BALF ([3]; 0.2 mg/mL): 79%
- % inhibition, Neutrophils in BALF ([3]; 0.2 mg/mL): 77%
- Cell numbers in BALF, Macrophages ([3]; 0.2 mg/mL): 6.8 ± 0.3 x10^4/mL
- Cell numbers in BALF, Neutrophils ([3]; 0.2 mg/mL): 3.8 ± 0.2 x10^4/mL
